Data from ChEMBL document CHEMBL1201862, “PubChem BioAssay data set” (2004).
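Grown in 96-well plates, cells were treated for 48 hours with each compound at five concentrations. Insufficient inhibition: endpoint recorded as highest concentration tested. Here, GI50 denotes the concentration required for 50% inhibition of growth.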 Active and inactive are the calls of the source. No stated cut-off is given here; in the data, active = GI50 up to about 1.1 µM and inactive = higher.

Key:
Experiment in all cases: inhibition of tumour cell growth, NCI panel, 48 h
[1] = tested on: DMS-114
[2] = tested on: LXFL 529
[3] = tested on: HOP-18
[4] = tested on: DLD-1
[5] = tested on: M19-MEL
[6] = tested on: DMS-273
[7] = tested on: XF498
[8] = tested on: KM-20L2
[9] = tested on: RXF 631

SMILES	GI50 [1]	GI50 [2]	GI50 [3]	GI50 [4]	GI50 [5]	GI50 [6]	GI50 [7]	GI50 [8]	GI50 [9]
C#C[C@]1(O)CCC2C3CCc4cc(Oc5nc(F)nc(-c6c7cc8ccccc8cc7c7n6CCS7)n5)ccc4C3CCC21C (stereo not given in full)	21.5 µM (inactive)	39.5 µM (inactive)	> 100 µM (inactive)	54.6 µM (inactive)	30.3 µM (inactive)	23.8 µM (inactive)	> 100 µM (inactive)	32.7 µM (inactive)	
CSC(SC)=C1Sc2cccc(Cl)c2S1	26.4 µM (inactive)	69.8 µM (inactive)	> 100 µM (inactive)	45.2 µM (inactive)	43.5 µM (inactive)	46.2 µM (inactive)	29.9 µM (inactive)	36.9 µM (inactive)	
COc1ccc(OC(=O)CC2Cc3cc(OC)c(OC)c(OC)c3-c3ccc(SC)c(=O)cc32)cc1 (stereo not given)	0.348 µM (active)	0.217 µM (active)		0.344 µM (active)	5.74 µM (inactive)	0.102 µM (active)	0.258 µM (active)	0.169 µM (active)	0.281 µM (active)
CC(=O)N1[C@H](C(=O)O)CS[C@H]1c1ccncc1	> 100 µM (inactive)	> 100 µM (inactive)	> 100 µM (inactive)	> 100 µM (inactive)	> 100 µM (inactive)			> 100 µM (inactive)	
Cc1cc(N(CCC#N)S(=O)(=O)c2ccccc2)ccc1/C=N/c1ccc(C(=O)O)cc1	3.41 µM (inactive)	1.76 µM (inactive)	3.24 µM (inactive)	1.99 µM (inactive)	2.75 µM (inactive)	6.61 µM (inactive)	8.71 µM (inactive)	9.82 µM (inactive)	
CCNC(=O)C(O)C1(O)CCC2[C@@H]3CCC4=CC(=O)C=C[C@]4(C)C3[C@@H](O)C[C@@]21C (stereo not given in full)	60.7 µM (inactive)	> 100 µM (inactive)	33.3 µM (inactive)	> 100 µM (inactive)	> 100 µM (inactive)	> 100 µM (inactive)	> 100 µM (inactive)	> 100 µM (inactive)	> 100 µM (inactive)
Cc1nc([N+](=O)[O-])cn1CC(=N)N	> 100 µM (inactive)	> 100 µM (inactive)		> 100 µM (inactive)	> 100 µM (inactive)	> 100 µM (inactive)		> 100 µM (inactive)	> 100 µM (inactive)
NC(=O)/C(=N\NC(=O)c1cc2ccccc2cc1O)C1C(=O)N(c2ccccc2)N=C1N (stereo not given)	20.4 µM (inactive)	59.3 µM (inactive)	17.5 µM (inactive)	34 µM (inactive)	30.6 µM (inactive)		37.6 µM (inactive)	32.9 µM (inactive)	37.3 µM (inactive)
COc1ccccc1NC(=O)CC(=O)N1N=C(C)C(/N=N/c2ccc(S(N)(=O)=O)cc2)C1=O (stereo not given)	> 100 µM (inactive)	> 100 µM (inactive)	> 100 µM (inactive)	> 100 µM (inactive)	> 100 µM (inactive)	> 100 µM (inactive)	> 100 µM (inactive)	> 100 µM (inactive)	
CC(=O)[O-].[O-]c1c(Cl)cc(Cl)cc1/C=N/Nc1ccccn1.[Zn+2]	0.239 µM (active)	0.436 µM (active)		0.415 µM (active)	0.745 µM (active)			3.7 µM (inactive)	
O=C1C=CC(=C(c2ccc(O)cc2)c2ccc(O)cc2)C=C1 [AURIN]	2.4 µM (inactive)	3.18 µM (inactive)	16.4 µM (inactive)	10.3 µM (inactive)		6.78 µM (inactive)	11.7 µM (inactive)	16.5 µM (inactive)	15 µM (inactive)
Cc1ccc(S(=O)(=O)OCOS(=O)(=O)c2ccc(C)cc2)cc1	> 100 µM (inactive)	> 100 µM (inactive)	> 100 µM (inactive)	> 100 µM (inactive)	> 100 µM (inactive)	> 100 µM (inactive)		> 100 µM (inactive)	
Cn1cc/c(=N\N=c2/ccn(C)c3ccccc23)c2ccccc21	14.4 µM (inactive)	14.1 µM (inactive)		14.7 µM (inactive)	18.7 µM (inactive)	16.4 µM (inactive)	14.1 µM (inactive)	13.1 µM (inactive)	
S=P1(c2ccccc2)Nc2ccc(Cl)cc2N1 (stereo not given)	26.6 µM (inactive)	17.6 µM (inactive)	> 100 µM (inactive)	> 100 µM (inactive)	14.2 µM (inactive)	> 100 µM (inactive)	> 100 µM (inactive)	> 100 µM (inactive)	85.7 µM (inactive)
COc1cc2c3c(c1OC)/C(=N/OS(=O)(=O)c1ccc(C)cc1)CC3N(S(=O)(=O)c1ccc(C)cc1)CC2 (stereo not given)	> 100 µM (inactive)	> 100 µM (inactive)	> 100 µM (inactive)	> 100 µM (inactive)	> 100 µM (inactive)	> 100 µM (inactive)	> 100 µM (inactive)	> 100 µM (inactive)	66.1 µM (inactive)
O=C(Nc1cc([N+](=O)[O-])cc([N+](=O)[O-])c1)OC1C2CCC1C1OC1C2 (stereo not given)	30.5 µM (inactive)			> 50 µM (inactive)	> 50 µM (inactive)			> 50 µM (inactive)	
Cc1cc2c(=O)cc(-c3ccc(Cl)cc3)oc2c(C(=O)O)c1C	> 100 µM (inactive)	> 100 µM (inactive)	> 100 µM (inactive)	> 100 µM (inactive)	> 100 µM (inactive)	> 100 µM (inactive)	> 100 µM (inactive)	> 100 µM (inactive)	> 100 µM (inactive)
CCOC(=O)N1CCc2cc(OC)c(OC)cc2/C1=C/c1ccc(OC)c(OC)c1	40 µM (inactive)	34.6 µM (inactive)	> 100 µM (inactive)	48.6 µM (inactive)	45.9 µM (inactive)	49.2 µM (inactive)	30 µM (inactive)	38.3 µM (inactive)	
C=C(C)c1nc(Oc2ccccc2)nc(Oc2ccccc2)n1	3.01 µM (inactive)	2 µM (inactive)	16.6 µM (inactive)	2.72 µM (inactive)	2.88 µM (inactive)	6.43 µM (inactive)	1.73 µM (inactive)	9.98 µM (inactive)	3.69 µM (inactive)
CN(C)CCSc1cccc(-c2cc(-c3cccc(SCCN(C)C)c3)nc(SCCN(C)C)n2)c1		2.02 µM (inactive)	< 0.01 µM (active)	12.9 µM (inactive)				1.71 µM (inactive)	
O=C1Sc2sc(=S)sc2SC1c1ccccc1 (stereo not given)	34.3 µM (inactive)		48.1 µM (inactive)	32.2 µM (inactive)	60.4 µM (inactive)	> 100 µM (inactive)	45.2 µM (inactive)	> 63.5 µM (inactive)	
CCOC(=O)C1=C(NC)OC/C1=N\NC(=O)c1ccccc1O	20.7 µM (inactive)	39.8 µM (inactive)	14.8 µM (inactive)	17.6 µM (inactive)	29.9 µM (inactive)	23.1 µM (inactive)	56.4 µM (inactive)	39.7 µM (inactive)	
Cc1cc(N(CCC#N)CCC#N)ccc1/N=N/c1ccc(S(N)(=O)=O)cc1	> 100 µM (inactive)	> 100 µM (inactive)	51.1 µM (inactive)	> 100 µM (inactive)		> 100 µM (inactive)	0.0413 µM (active)		> 100 µM (inactive)
CNC=O	> 5160 µM (inactive)		> 10000 µM (inactive)	> 10000 µM (inactive)	> 10000 µM (inactive)	> 10000 µM (inactive)	> 9550 µM (inactive)	> 10000 µM (inactive)	
C=C(CN(C)C)C(=O)c1ccc(OC)cc1	3.7 µM (inactive)	1.69 µM (inactive)	3.78 µM (inactive)	0.427 µM (active)	2.07 µM (inactive)	3.8 µM (inactive)	1.93 µM (inactive)	5.13 µM (inactive)	
CCCCCCCCCCCCCCCCCC(=O)OCC(CN(C)CCN(C)C)OC(=O)CCCCCCCCCCCCCCCCC (stereo not given)	46.1 µM (inactive)	72.4 µM (inactive)	20.6 µM (inactive)	89.7 µM (inactive)		> 100 µM (inactive)		> 100 µM (inactive)	55.5 µM (inactive)
COc1cccc(NC(=O)CC(=O)N2N=C(N3c4ccccc4Sc4ccccc43)CC2c2ccccc2)c1 (stereo not given)	> 100 µM (inactive)	> 100 µM (inactive)	9.48 µM (inactive)	> 100 µM (inactive)	> 100 µM (inactive)		> 100 µM (inactive)	> 100 µM (inactive)	
